Test results reported in article PMC7875316 (Biochemistry, 2020).

Target: T1, ClpL (Streptococcus mutans, UniProt Q8DUH3)
T1 sequence (Q8DUH3 1-701): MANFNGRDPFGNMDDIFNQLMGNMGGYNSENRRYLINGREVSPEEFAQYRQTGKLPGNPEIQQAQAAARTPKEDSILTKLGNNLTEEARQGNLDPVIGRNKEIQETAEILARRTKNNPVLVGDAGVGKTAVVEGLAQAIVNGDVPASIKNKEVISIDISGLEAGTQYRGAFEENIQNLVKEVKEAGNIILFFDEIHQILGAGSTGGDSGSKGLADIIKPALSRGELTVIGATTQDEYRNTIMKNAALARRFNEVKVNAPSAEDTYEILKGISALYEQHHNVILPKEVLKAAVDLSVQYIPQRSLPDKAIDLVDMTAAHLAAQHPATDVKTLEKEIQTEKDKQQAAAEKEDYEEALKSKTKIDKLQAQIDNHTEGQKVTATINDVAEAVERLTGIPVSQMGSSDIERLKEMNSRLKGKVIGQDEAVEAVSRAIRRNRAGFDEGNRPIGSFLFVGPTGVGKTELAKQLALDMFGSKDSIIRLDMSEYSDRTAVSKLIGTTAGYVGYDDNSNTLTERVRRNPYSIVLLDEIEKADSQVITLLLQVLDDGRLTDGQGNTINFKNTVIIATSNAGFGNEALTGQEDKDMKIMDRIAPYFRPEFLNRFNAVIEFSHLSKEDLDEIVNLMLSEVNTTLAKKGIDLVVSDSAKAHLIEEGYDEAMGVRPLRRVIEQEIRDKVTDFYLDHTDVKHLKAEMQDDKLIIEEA
Assay: protection from limited trypsin proteolysis, SDS-PAGE
Assay type: binding
Details: 1 mM ADP (legend; methods say 5 mM), 20 mM MgCl2, room temperature

Compound: Nc1ncnc2c1ncn2[C@@H]1O[C@H](COP(=O)(O)OP(=O)(O)O)[C@@H](O)[C@H]1O [ADP]
- protection from limited trypsin proteolysis, SDS-PAGE: Addition of ATP or ADP dramatically increased the stability of ClpL to trypsin digestion.
